The values below are quoted from earlier work in patent publication US20110105450A1, “OPHTHALMIC FORMULATIONS OF FLUTICASONE AND METHODS OF USE” (Aciex Therapeutics, Inc., priority 2009, published 2011).

Values after ≈ are worked out from the molar mass of the structure shown.

Take `CCC(=O)O[C@]1(C(=O)SCF)[C@H](C)C[C@H]2[C@@H]3C[C@H](F)C4=CC(=O)C=C[C@]4(C)[C@@]3(F)[C@@H](O)C[C@@]21C` [Fluticasone propionate, S-fluoromethyl-6-α-9-difluoro-11-β-hydroxy-16-α-methyl-3-oxoandrosta-1,4-diene-17-β-carbothioate, 17-propionate]: the “solubility in 95% ethanol” value (95% ethanol) is reported as “slightly soluble”. Under “dimethyl sulfoxide”, the “solubility in dimethyl sulfoxide” value is listed as “freely soluble”. Moreover, the solubility in dimethyl-formamide entry (dimethyl-formamide) is on record as “freely soluble”. Also, for the setting “methanol”, the solubility in methanol entry is given as “slightly soluble”. Besides, the solubility in water (water) is 0.14 µg/mL (≈ 0.28 µM).
